In patent US12673915B2, “Precursor compound of hexahydro-beta-acid component compound, feed composition and use thereof” (WISORIG TECHNOLOGIES PTE. LIMITED, priority 2020, dated 2026):

Assays:
Assay type in all cases: physicochemical
[1] = Thermal stability testing at 60° C. of ingredient and 1% premix (HPLC)
Description: (§1) Preparation of a sample of 1% premix of an ingredient: 1 g of an ingredient was respectively weighed out and evenly mixed with 99 g of corncob meal in a mixer to give a sample of 1% premix of an ingredient for testing.
Thermal stability testing at 60° C.: The samples of an ingredient and 1% premix thereof were respectively spread in petri dishes to form thin layers of <5 mm, and kept at 60° C. Two replications for a sample were taken in parallel on day 5 and day 10 for HPLC analysis.
(§2) 25.0 mg of an ingredient was accurately weighed out and dissolved in an appropriate amount of methanol by ultrasonication. The solution was then transferred to a volumetric flask and diluted to 25 mL with methanol to give a stock solution. The samples from the stock solution were diluted with methanol respectively to a concentration of 100 ppm, 500 ppm, and 1000 ppm of work solution, and then the working solutions were filtered by 0.22 μm organic membranes. Between the concentration of a sample and the response value of HPLC peak area thereof, the linearity was adjusted and detected to give a standard curve.
(§3) 2.3: Preparation of Sample Solution 25.0 mg of an ingredient and 2.0000 g of a sample of 1% premix thereof were respectively accurately weighed out, and dissolved in 25 mL of methanol by ultrasonication for 10 minutes. The resulting solutions were filtered by organic membranes and then analyzed by HPLC. 2.4: Testing Conditions for HPLC • Column: Symmetry Cis column (Waters; 250 mm*4.6 mm, 5 μm). • Mobile phase: 0.02% phosphoric acid:methanol=5:95 (v:v). • Wavelength: 235 nm. • Temperature of the Column: 25° C. • Injection volume: 10 μL. • Flow rate: 1 mL/min. 3: Results

[2] = Photostability testing under illumination of 4500 Lx of ingredient and 1% premix (HPLC); details: 4500 Lx
Source text: as §1
Photostability testing: The samples of an ingredient and 1% premix thereof were respectively spread in petri dishes to form thin layers of <5 mm, and kept under an illumination of 4500 Lx. Three replications for a sample were sampled in parallel on day 5 and day 10 for HPLC analysis.
as §2, §3

[3] = Long-term stability in feeds at room temperature (25° C.±2° C., RH 60%±10%; HPLC)
Source text: Feeds: ZUSF's premixed feed (A mixture of crushed Feed A and crushed Feed B at a weight ratio of 2:1, wherein Feed A was a 5.33% multi-premixed feed for piglets from ZUSF's Hao-Ru-Zhen-Jing, and B was a 2.67% multi-premixed feed for piglets from ZUSF's Hao-Ru-Zhen-Jing); creep feed for piglets from CP FEED; INSIGHTER's feed for broiler; 4% premixed feed from GUANGDONG CO-POWER.
Preparation of a sample of 1% premix of Ingredient: 1 g of an ingredient was respectively weighed out and evenly mixed with 99 g of corncob meal in a mixer to give a sample of 1% premix of an ingredient.
Preparation of a sample of 500 ppm feed of an ingredient: The sample of 1% premix of an ingredient was diluted step by step using the ZUSF's remixed feed to 5000 ppm and 500 ppm to give the sample of 500 ppm feed of an ingredient for later testing.
Preparation of a sample of 100 ppm feed of an ingredient: sample of 1% premix of an ingredient was diluted step by step using the creep feed for piglets from CP FEED to 1000 ppm and then 100 ppm to give the sample of 100 ppm feed of an ingredient for later testing.
Preparation of a sample of 100 ppm feed of an ingredient: The sample of 1% premix of an ingredient was diluted step by step using the INSIGHTER's feed for broiler to 1000 ppm and 100 ppm to give the sample of 100 ppm feed of an ingredient for later testing.
Preparation of a sample of 2000 ppm feed of an ingredient: The sample of 1% premix of an ingredient was diluted step by step using the 4% premixed feed from GUANGDONG CO-POWER to 5000 ppm and 2000 ppm to give the sample of 2000 ppm feed of an ingredient for later testing.
Method: Three replications of each feed sample were tested at the condition of 25° C.±2° C. and RH 60%±10%, wherein the replications of each feed sample were sampled in parallel for HPLC analysis on day 5, day 10, day 15, day 30, day 60, and day 90.
25.0 mg of an ingredient was accurately weighed out and dissolved in an appropriate amount of methanol or n-hexane by ultrasonication. The solution was then transferred to a volumetric flask and diluted to 50 mL to give a 500 ppm (by wt.) stock solution. The samples from the stock solution were diluted with methanol or n-hexane respectively to a concentration of 10 ppm, 25 ppm, 50 ppm, 100 ppm, and 250 ppm of work solution, and then the working solutions were filtered by 0.22 μm organic membranes. Between the concentration of a sample and the response value of HPLC peak area thereof, the linearity was adjusted and detected to give a standard curve.
5.0000 g of the samples sampled at different time intervals were respectively accurately weighed out, and dissolved in 25 mL of methanol or n-hexane by ultrasonication for 10 minutes. The resulting solutions were filtered by organic membranes and then analyzed by HPLC.
• Equipment: Waters e2695 with PDA detector. • Mobile phase: 0.02% phosphoric acid:methanol=5:95 (v:v). • Column: Symmetry Cis column (Waters; 250 mm×4.6 mm, 5 μm). • Wavelength: 235 nm. • Temperature of the Column: 25° C. • Injection volume: 10 μL. • Flow rate: 1 mL/min. Normal Phase Chromatography: • Equipment: Shimadzu LC-14C/SPD-15C. • Column: SuperSil NH2 column ([…]; 250 mm×4.6 mm). • Mobile phase: n-hexane:isopropanol=60:40 (v:v). • Wavelength: 235 nm. • Temperature of the Column: 25° C. • Injection volume: 20 μL. • Flow rate: 1 mL/min. 3: Results

[4] = 1% Premix of an ingredient (corncob meal), Day 5
[5] = 1% Premix of an ingredient (corncob meal), Day 10

CCC(=O)OC1=C(CCC(C)C)C(=O)C(CCC(C)C)(CCC(C)C)C(O)=C1C(=O)C(C)C [hexahydro-colupulone mono-propionate]
Residual amount of active ingredient [1, 4]: 98.27% | Residual amount of active ingredient [1, 5]: 97.91% | Residual amount of active ingredient ([1]; Ingredient, Day 5): 99.40% | Residual amount of active ingredient ([1]; Ingredient, Day 10): 99.26% | Residual amount of active ingredient [2, 4]: 98.87% | Residual amount of active ingredient [2, 5]: 98.10% | Residual amount of active ingredient ([2]; Ingredient, Day 5): 98.90% | Residual amount of active ingredient ([2]; Ingredient, Day 10): 98.70% | Residual amount of active ingredient ([3]; 100 ppm in INSIGHTER's broiler feed, Day 5): 99.45% | Residual amount of active ingredient ([3]; 100 ppm in INSIGHTER's broiler feed, Day 15): 99.37% | Residual amount of active ingredient ([3]; 100 ppm in INSIGHTER's broiler feed, Day 30): 99.19% | Residual amount of active ingredient ([3]; 100 ppm in INSIGHTER's broiler feed, Day 60): 99.72% | Residual amount of active ingredient ([3]; 100 ppm in creep feed for piglets from CP FEED, Day 5): 100.54% | Residual amount of active ingredient ([3]; 100 ppm in creep feed for piglets from CP FEED, Day 15): 100.97% | Residual amount of active ingredient ([3]; 100 ppm in creep feed for piglets from CP FEED, Day 30): 97.62% | Residual amount of active ingredient ([3]; 100 ppm in creep feed for piglets from CP FEED, Day 60): 98.08% | Residual amount of active ingredient ([3]; 100 ppm in creep feed for piglets from CP FEED, Day 90): 96.99% | Residual amount of active ingredient ([3]; 500 ppm in ZUSF's premixed feed, Day 5): 98.36% | Residual amount of active ingredient ([3]; 500 ppm in ZUSF's premixed feed, Day 15): 96.77% | Residual amount of active ingredient ([3]; 500 ppm in ZUSF's premixed feed, Day 30): 94.17% | Residual amount of active ingredient ([3]; 500 ppm in ZUSF's premixed feed, Day 60): 95.88% | Residual amount of active ingredient ([3]; 500 ppm in ZUSF's premixed feed, Day 90): 95.73% | Residual amount of active ingredient ([3]; 2000 ppm in 4% premixed feed from GUANGDONG CO-POWER, Day 5): 97.48% | Residual amount of active ingredient ([3]; 2000 ppm in 4% premixed feed from GUANGDONG CO-POWER, Day 15): 96.12% | Residual amount of active ingredient ([3]; 2000 ppm in 4% premixed feed from GUANGDONG CO-POWER, Day 30): 96.28% | Residual amount of active ingredient ([3]; 2000 ppm in 4% premixed feed from GUANGDONG CO-POWER, Day 60): 95.87% | Residual amount of active ingredient ([3]; 2000 ppm in 4% premixed feed from GUANGDONG CO-POWER, Day 90): 95.90%
